Experimental data from patent US10821100B2, “Triazolone compounds as mPGES-1 inhibitors” (Glenmark Pharmaceuticals S.A., priority 2012, dated 2020).
pIC50: −log10 of the molar value.

Biological target: T1, Recombinant human mPGES-1 (Homo sapiens, UniProt O14684)
T1 construct: made in house; host or cells: CHO cells (crude microsomal fractions)
T1 sequence (O14684 1-152): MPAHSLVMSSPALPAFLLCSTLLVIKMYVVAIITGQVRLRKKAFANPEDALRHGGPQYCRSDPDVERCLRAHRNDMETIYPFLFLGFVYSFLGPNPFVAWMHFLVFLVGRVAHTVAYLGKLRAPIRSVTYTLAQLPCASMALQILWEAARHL
Test: In-vitro screening of mPGES-1 inhibitors (inhibition of PGE2 formation from PGH2, HTRF detection)
Type: biochemical
Conditions: mPGES-1 enzyme; for inhibition at 1 µM: 1 μM test compound, read-out: Percentage inhibition at 1 μM; for inhibition at 1 µM / inhibition at 3 µM / inhibition at 10 µM: crude microsomal fractions; for inhibition at 3 µM: 3 μM test compound, read-out: Percentage inhibition at 3 μM; for pIC50: class symbols; for inhibition at 10 µM: 10 μM test compound, read-out: Percentage inhibition at 10 μM
Method in brief: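 PGH2-to-PGE2 isomerization run for 1 min with 15 μM PGH2 after 10 min compound preincubation with microsomal enzyme (40–60 μg/mL) and 2.5 mM GSH, pH buffer 0.1 M potassium phosphate with EDTA. Stannous chloride quench, HTRF PGE2 readout, IC50 fitted against uninhibited reaction.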

| inhibition at 1 µM | inhibition at 3 µM | pIC50 | inhibition at 10 µM | SMILES |
| --- | --- | --- | --- | --- |
| 98.7% | 98.5% | > 7.30 |  | COc1cc(-n2nc(-c3cc(CNC(=O)C4CC4)ccc3Cl)[nH]c2=O)ccc1-c1nc(-c2ccc(Cl)cc2)no1 [Example-57, N-(4-Chloro-3-(1-(4-(3-(4-chlorophenyl)-1,2,4-oxadiazol-5-yl)-3-methoxyphenyl)-5-oxo-4,5-dihydro-1H-1,2,4-triazol-3-yl)benzyl)cyclopropanecarboxamide] |
| 95.2% |  | 7.00 to 7.30 | 97.3% | COc1cc(-n2nc(-c3c(F)cccc3Cl)[nH]c2=O)ccc1-c1nc2cc(C)c(C)cc2n1C [Example-58, 3-(2-Chloro-6-fluorophenyl)-1-(3-methoxy-4-(1,5,6-trimethyl-1H-benzo[d]imidazol-2-yl)phenyl)-1H-1,2,4-triazol-5(4H)-one] |
| 93.9% |  | > 7.30 | 96.8% | COc1cc(-n2nc(-c3c(F)cccc3Cl)[nH]c2=O)ccc1C#Cc1cc(Cl)ccc1Cl [Example-59, 3-(2-Chloro-6-fluorophenyl)-1-(4-((2,5-dichlorophenyl)ethynyl)-3-methoxyphenyl)-1H-1,2,4-triazol-5(4H)-one] |
| 95.4% |  | > 7.30 | 93.1% | COc1cc(-n2nc(-c3c(F)cccc3Cl)[nH]c2=O)ccc1C#Cc1cccc(Cl)c1F [Example-60, 1-(4-((3-Chloro-2-fluorophenyl)ethynyl)-3-methoxyphenyl)-3-(2-chloro-6-fluorophenyl)-1H-1,2,4-triazol-5(4H)-one] |
| 92.4% |  | > 7.30 | 96.8% | COc1cc(-n2nc(-c3c(F)cccc3Cl)[nH]c2=O)ccc1C#Cc1ccc(C(F)(F)F)cc1Cl [Example-61, 1-(4-((2-Chloro-4-(trifluoromethyl)phenyl)ethynyl)-3-methoxyphenyl)-3-(2-chloro-6-fluorophenyl)-1H-1,2,4-triazol-5(4H)-one] |
| 97.8% |  | > 7.30 | 98.3% | COc1cc(-n2nc(-c3c(Cl)cccc3C#N)[nH]c2=O)ccc1C(=O)Nc1cccc(C(F)(F)F)c1 [Example-62, 4-(3-(2-Chloro-6-cyanophenyl)-5-oxo-4,5-dihydro-1H-1,2,4-triazol-1-yl)-2-methoxy-N-(3-(trifluoromethyl)phenyl)benzamide] |
| 92.4% |  | > 7.30 | 94.8% | COc1cc(-n2nc(-c3cc(CNC(=O)C4CC4)ccc3Cl)[nH]c2=O)ccc1C(=O)Nc1ccc(F)c(C(F)F)c1 [Example-63, 4-(3-(2-Chloro-5-(cyclopropanecarboxamidomethyl)phenyl)-5-oxo-4,5-dihydro-1H-1,2,4-triazol-1-yl)-N-(3-(difluoromethyl)-4-fluorophenyl)-2-methoxybenzamide] |
| 28.9% |  |  | 63.8% | COc1cc(-n2nc(-c3c(Cl)cccc3Cl)[nH]c2=O)ccc1C(=O)Nc1cc(CNC(=O)C2CC2)ccc1Cl [Example-64, N-(2-Chloro-5-(cyclopropanecarboxamidomethyl)phenyl)-4-(3-(2,6-dichlorophenyl)-5-oxo-4,5-dihydro-1H-1,2,4-triazol-1-yl)-2-methoxybenzamide] |
| 75.5% |  |  | 94.5% | COc1cc(-n2nc(-c3c(Cl)cccc3Cl)[nH]c2=O)ccc1-c1nc2cc(C(F)(F)F)ccc2[nH]1 [Example-65, 3-(2,6-Dichlorophenyl)-1-(3-methoxy-4-(5-(trifluoromethyl)-1H-benzo[d]imidazol-2-yl)phenyl)-1H-1,2,4-triazol-5(4H)-one] |
| 87.8% |  | < 7.00 | 98.8% | COc1cc(-n2nc(-c3cc(CNC(=O)C4CC4)ccc3Cl)[nH]c2=O)ccc1NC(=O)C1CC1 [Example-66, N-(4-Chloro-3-(1-(4-(cyclopropanecarboxamido)-3-methoxyphenyl)-5-oxo-4,5-dihydro-1H-1,2,4-triazol-3-yl)benzyl)cyclopropanecarboxamide] |
| 72.7% |  |  | 96.3% | COc1cc(-n2nc(-c3c(Cl)cccc3Cl)[nH]c2=O)ccc1C(=O)Nc1ccc(S(C)(=O)=O)cc1 [Example-67, 4-(3-(2,6-Dichlorophenyl)-5-oxo-4,5-dihydro-1H-1,2,4-triazol-1-yl)-2-methoxy-N-(4-(methylsulfonyl)phenyl)benzamide] |
| 97.4% |  | > 7.30 | 96.4% | COc1cc(-n2nc(-c3cc(CNC(=O)C4CC4)ccc3Cl)[nH]c2=O)ccc1C(=O)Nc1cccc(C(F)F)c1 [Example-68, 4-(3-(2-Chloro-5-(cyclopropanecarboxamidomethyl)phenyl)-5-oxo-4,5-dihydro-1H-1,2,4-triazol-1-yl)-N-(3-(difluoromethyl)phenyl)-2-methoxybenzamide] |
| 86.4% |  | < 7.00 | 89.1% | COc1cc(-n2nc(-c3cc(S(=O)(=O)NC4CC4)ccc3Cl)[nH]c2=O)ccc1C(=O)Nc1cccc(C(F)(F)F)c1 [Example-69, 4-(3-(2-Chloro-5-(N-cyclopropylsulfamoyl)phenyl)-5-oxo-4,5-dihydro-1H-1,2,4-triazol-1-yl)-2-methoxy-N-(3-(trifluoromethyl)phenyl)benzamide] |
| 0.55% |  |  | 6.63% | CCn1c(-c2c(Cl)cccc2Cl)nn(-c2ccc(C(=O)Nc3cccc(C(F)(F)F)c3)c(OC)c2)c1=O [Example-70, 4-(3-(2,6-Dichlorophenyl)-4-ethyl-5-oxo-4,5-dihydro-1H-1,2,4-triazol-1-yl)-2-methoxy-N-(3-(trifluoromethyl)phenyl)benzamide] |
| 12.9% |  |  | 17.9% | CCn1c(-c2c(F)cccc2Cl)nn(-c2ccc(C#Cc3cccc(Cl)c3F)cc2)c1=O [Example-71] |
| 99.2% | 99% | > 7.30 |  | O=C(Nc1cccc(C(F)(F)F)c1)c1ccc(-n2nc(-c3cc(CNC(=O)C4CC4)ccc3Cl)[nH]c2=O)cc1 [Example-72, 4-(3-(2-Chloro-5-(cyclopropanecarboxamidomethyl)phenyl)-5-oxo-4,5-dihydro-1H-1,2,4-triazol-1-yl)-N-(3-(trifluoromethyl)phenyl)benzamide] |
| 92.4% |  | > 7.30 | 92.4% | COc1cc(-n2nc(-c3c(Cl)cccc3C#N)[nH]c2=O)ccc1C(=O)Nc1ccc(F)c(C(F)(F)F)c1 [Example-73, 4-(3-(2-Chloro-6-cyanophenyl)-5-oxo-4,5-dihydro-1H-1,2,4-triazol-1-yl)-N-(4-fluoro-3-(trifluoromethyl)phenyl)-2-methoxybenzamide] |
| 93.2% |  | 7.00 to 7.30 | 98.7% | COc1cc(-c2nn(-c3c(Cl)cccc3Cl)c(=O)[nH]2)ccc1C#Cc1cccc(Cl)c1F [Example-74] |
| 99.1% |  | > 7.30 | 98.3% | COc1cc(-c2nn(-c3c(Cl)cccc3Cl)c(=O)[nH]2)ccc1C#Cc1ccc(C(F)(F)F)cc1Cl [Example-75, 3-(4-((2-Chloro-4-(trifluoromethyl)phenyl)ethynyl)-3-methoxyphenyl)-1-(2,6-dichlorophenyl)-1H-1,2,4-triazol-5(4H)-one] |
| 95.6% |  | > 7.30 | 95.4% | COc1cc(-c2nn(-c3c(Cl)cccc3Cl)c(=O)[nH]2)ccc1C(=O)Nc1cccc(C(F)(F)F)c1 [Example-76, 4-(1-(2,6-Dichlorophenyl)-5-oxo-4,5-dihydro-1H-1,2,4-triazol-3-yl)-2-methoxy-N-(3-(trifluoromethyl)phenyl)benzamide] |
| 93.2% |  | 7.00 to 7.30 | 98.1% | COc1cc(-c2nn(-c3c(Cl)cccc3Cl)c(=O)[nH]2)ccc1C(=O)Nc1ccc(F)c(C(F)(F)F)c1 [Example-77, 4-(1-(2,6-Dichlorophenyl)-5-oxo-4,5-dihydro-1H-1,2,4-triazol-3-yl)-N-(4-fluoro-3-(trifluoromethyl)phenyl)-2-methoxybenzamide] |
| 99.9% |  | > 7.30 | 99.9% | O=C(NCc1ccc(Cl)c(-n2nc(-c3ccc(C#Cc4cc(Cl)ccc4Cl)cc3F)[nH]c2=O)c1)C1CC1 [Example-78] |
| 99.1% |  | > 7.30 | 97.1% | O=C(NCc1ccc(Cl)c(-n2nc(-c3ccc(C#Cc4ccc(Cl)cc4F)cc3F)[nH]c2=O)c1)C1CC1 [Example-79, N-(4-Chloro-3-(3-(4-((4-chloro-2-fluorophenyl)ethynyl)-2-fluorophenyl)-5-oxo-4,5-dihydro-1H-1,2,4-triazol-1-yl)benzyl)cyclopropanecarboxamide] |
| 97% |  | > 7.30 | 97.1% | O=C(NCc1ccc(Cl)c(-n2nc(-c3ccc(C#Cc4cccc(C(F)(F)F)c4)cc3F)[nH]c2=O)c1)C1CC1 [Example-80, N-(4-Chloro-3-(3-(2-fluoro-4-((3-(trifluoromethyl)phenyl)ethynyl)phenyl)-5-oxo-4,5-dihydro-1H-1,2,4-triazol-1-yl)benzyl)cyclopropanecarboxamide] |
| 99.8% |  | > 7.30 | 98% | O=C(NCc1ccc(Cl)c(-n2nc(-c3ccc(C#Cc4cccc(Cl)c4F)cc3F)[nH]c2=O)c1)C1CC1 [Example-81, N-(4-Chloro-3-(3-(4-((3-chloro-2-fluorophenyl)ethynyl)-2-fluorophenyl)-5-oxo-4,5-dihydro-1H-1,2,4-triazol-1-yl)benzyl)cyclopropanecarboxamide] |
